From ChEMBL document CHEMBL1287692, “Structure-based design, synthesis and A-site rRNA co-crystal complexes of novel amphiphilic aminoglycoside antibiotics with new binding modes: a synergistic hydrophobic effect against resistant bacteria” (2010)
Converted amounts (≈) assume the structure as drawn.

Key:
Type in all cases: functional
[1] = test system: Escherichia coli; test: Antibacterial activity against Escherichia coli ATCC 25922
[2] = test system: Staphylococcus aureus; test: Antibacterial activity against Staphylococcus aureus ATCC 13709
[3] = test system: Staphylococcus aureus; test: Antibacterial activity against Staphylococcus aureus ATCC […]
[4] = test system: Staphylococcus aureus; test: Antibacterial activity against oxymycin-sensitive Staphylococcus aureus 1269669
[5] = test system: Staphylococcus aureus; test: Antibacterial activity against vancomycin-, ciprofloxacin-, gentamicin-resistant Staphylococcus aureus 1269615
[6] = test system: Staphylococcus epidermidis; test: Antibacterial activity against oxymycin and gentamicin-resistant Staphylococcus epidermidis 1269677
[7] = test system: Staphylococcus epidermidis; test: Antibacterial activity against Staphylococcus epidermidis 1269663
[8] = test system: Escherichia coli; test: Antibacterial activity against Escherichia coli 0157:H07
[9] = test system: Escherichia coli; test: Antibacterial activity against vancomycin-, ciprofloxacin-, gentamicin-resistant Escherichia coli 1269621
[10] = test system: Escherichia coli; test: Antibacterial activity against vancomycin-, ciprofloxacin-, gentamicin-resistant Escherichia coli 1269653
[11] = test system: Staphylococcus aureus; test: Antibacterial activity against oxymycin-sensitive Staphylococcus aureus 1269670
[12] = test system: Staphylococcus capitis; test: Antibacterial activity against Staphylococcus capitis 1269682
[13] = test system: Staphylococcus epidermidis; test: Antibacterial activity against oxymycin-, gentamicin-, levofloxacin-resistant Staphylococcus epidermidis 1269680
[14] = test system: Staphylococcus aureus; test: Antibacterial activity against vancomycin-, ciprofloxacin-, gentamicin-resistant Staphylococcus aureus 1269617
[15] = test system: Staphylococcus aureus; test: Antibacterial activity against vancomycin-sensitive and oxymycin-, ciprofloxacin-, gentamicin-resistant Staphylococcus aureus 9269619
[16] = test system: Escherichia coli; test: Antibacterial activity against vancomycin-, ciprofloxacin-, gentamicin-resistant Escherichia coli 1269620
[17] = test system: Escherichia coli; test: Antibacterial activity against vancomycin-, ciprofloxacin-, gentamicin-sensitive Escherichia coli 1269640
[18] = test system: Staphylococcus epidermidis; test: Antibacterial activity against oxymycin-, gentamicin-, levofloxacin-resistant Staphylococcus epidermidis 1269675
[19] = test system: Staphylococcus aureus; test: Antibacterial activity against vancomycin-intermediate and ciprofloxacin-, gentamicin-resistant Staphylococcus aureus 1269616
[20] = test system: Staphylococcus epidermidis; test: Antibacterial activity against oxymycin-, gentamicin-, levofloxacin-resistant Staphylococcus epidermidis 1269676
[21] = test system: Escherichia coli; test: Antibacterial activity against vancomycin-, ciprofloxacin-, gentamicin-resistant Escherichia coli 1269652
[22] = test system: Staphylococcus aureus; test: Antibacterial activity against vancomycin-intermediate and ciprofloxacin-, gentamicin-resistant Staphylococcus aureus 1269618
[23] = test system: Staphylococcus warneri; test: Antibacterial activity against Staphylococcus warneri 1269686

Structure (SMILES) | MIC [1] | MIC [2] | MIC [3] | MIC [4] | MIC [5] | MIC [6] | MIC [7] | MIC [8] | MIC [9] | MIC [10] | MIC [11] | MIC [12] | MIC [13] | MIC [14] | MIC [15] | MIC [16] | MIC [17] | MIC [18] | MIC [19] | MIC [20] | other results
NC[C@@H]1O[C@H](O[C@H]2[C@@H](O)[C@H](O[C@@H]3[C@@H](O)[C@H](N)C[C@H](N)[C@H]3O[C@H]3O[C@H](CO)CC[C@H]3N)O[C@@H]2CO)[C@H](N)[C@@H](O)[C@@H]1O | 20 µg/mL (≈ 34.3 µM) | 5 µg/mL (≈ 8.57 µM) | – | – | – | – | – | – | – | – | – | – | – | – | – | – | – | – | – | – | –
NCC[C@@H](O)C(=O)N[C@H]1C[C@H](N)[C@@H](O[C@H]2O[C@H](CO)[C@@H](O)[C@H](O)[C@H]2N)[C@@H](O[C@H]2O[C@H](CO)[C@@H](O[C@H]3O[C@@H](CN)[C@@H](O)[C@H](O)[C@H]3N)[C@H]2OCCNCCc2ccccc2)[C@H]1O | 2 µg/mL (≈ 2.31 µM) | 0.6 µg/mL (≈ 0.694 µM) | 0.25 µg/mL (≈ 0.289 µM) | < 0.12 µg/mL | 64 µg/mL (≈ 74.1 µM) | < 0.12 µg/mL | < 0.12 µg/mL | 1 µg/mL (≈ 1.16 µM) | 2 µg/mL (≈ 2.31 µM) | 2 µg/mL (≈ 2.31 µM) | < 0.12 µg/mL | < 0.12 µg/mL | < 0.12 µg/mL | 32 µg/mL (≈ 37 µM) | > 128 µg/mL | 1 µg/mL (≈ 1.16 µM) | 4 µg/mL (≈ 4.63 µM) | 16 µg/mL (≈ 18.5 µM) | 128 µg/mL (≈ 148 µM) | < 0.12 µg/mL | MIC [21]: 8 µg/mL (≈ 9.26 µM); MIC [22]: 128 µg/mL (≈ 148 µM); MIC [23]: < 0.12 µg/mL
NC[C@@H]1O[C@H](O[C@H]2[C@@H](O)[C@H](O[C@@H]3[C@@H](O)[C@H](N)C[C@H](N)[C@H]3O[C@H]3O[C@H](CN)[C@@H](O)[C@H](O)[C@H]3N)O[C@@H]2CO)[C@H](N)[C@@H](O)[C@@H]1O [FRAMYCETIN] | 3 µg/mL (≈ 4.88 µM) | 1 µg/mL (≈ 1.63 µM) | – | – | – | – | – | – | – | – | – | – | – | – | – | – | – | – | – | – | –
NC[C@@H]1O[C@H](O[C@H]2[C@@H](O)[C@H](O[C@@H]3[C@@H](O)[C@H](N)C[C@H](N)[C@H]3O[C@H]3O[C@H](CO)[C@@H](O)[C@H](O)[C@H]3N)O[C@@H]2CO)[C@H](N)[C@@H](O)[C@@H]1O [PAROMOMYCIN] | 3 µg/mL (≈ 4.87 µM) | 1 µg/mL (≈ 1.62 µM) | – | – | – | – | – | – | – | – | – | – | – | – | – | – | – | – | – | – | –
NC[C@@H]1O[C@H](O[C@H]2[C@@H](OCCNCCc3ccccc3)[C@H](O[C@@H]3[C@@H](O)[C@H](N)C[C@H](N)[C@H]3O[C@H]3O[C@H](CO)[C@@H](O)[C@H](O)[C@H]3N)O[C@@H]2CO)[C@H](N)[C@@H](O)[C@@H]1O | 3 µg/mL (≈ 3.93 µM) | 0.3 µg/mL (≈ 0.393 µM) | – | – | – | – | – | – | – | – | – | – | – | – | – | – | – | – | – | – | –
NC[C@@H]1O[C@H](O[C@H]2[C@@H](OCCNCCc3ccccc3)[C@@H](O[C@H]3[C@@H](O)[C@@H](N)C[C@@H](N)[C@H]3O[C@H]3O[C@H](CO)CC[C@H]3N)O[C@@H]2CO)[C@H](N)[C@@H](O)[C@@H]1O | 40 µg/mL (≈ 54.7 µM) | 1 µg/mL (≈ 1.37 µM) | – | – | – | – | – | – | – | – | – | – | – | – | – | – | – | – | – | – | –
NCC[C@H](O)C(=O)N[C@@H]1C[C@H](N)[C@@H](O[C@H]2O[C@H](CN)[C@@H](O)[C@H](O)[C@H]2O)[C@H](O)[C@H]1O[C@H]1O[C@H](CO)[C@@H](O)[C@H](N)[C@H]1O [AMIKACIN] | 2 µg/mL (≈ 3.42 µM) | – | 2 µg/mL (≈ 3.42 µM) | 2 µg/mL (≈ 3.42 µM) | 16 µg/mL (≈ 27.3 µM) | 4 µg/mL (≈ 6.83 µM) | 0.8 µg/mL (≈ 1.37 µM) | 1 µg/mL (≈ 1.71 µM) | 2 µg/mL (≈ 3.42 µM) | 8 µg/mL (≈ 13.7 µM) | 1 µg/mL (≈ 1.71 µM) | 0.5 µg/mL (≈ 0.854 µM) | 8 µg/mL (≈ 13.7 µM) | 8 µg/mL (≈ 13.7 µM) | 16 µg/mL (≈ 27.3 µM) | 2 µg/mL (≈ 3.42 µM) | 8 µg/mL (≈ 13.7 µM) | 8 µg/mL (≈ 13.7 µM) | 16 µg/mL (≈ 27.3 µM) | 4 µg/mL (≈ 6.83 µM) | MIC [21]: 64 µg/mL (≈ 109 µM); MIC [22]: 16 µg/mL (≈ 27.3 µM); MIC [23]: < 0.25 µg/mL
NCC[C@H](O)C(=O)N[C@@H]1C[C@H](N)[C@@H](O[C@H]2O[C@H](CO)CC[C@H]2N)[C@H](O[C@@H]2O[C@H](CO)[C@@H](O[C@H]3O[C@@H](CN)[C@@H](O)[C@H](O)[C@H]3N)[C@H]2OCCNCCc2ccccc2)[C@H]1O | 8 µg/mL (≈ 9.62 µM) | 0.6 µg/mL (≈ 0.721 µM) | > 0.12 µg/mL | 0.25 µg/mL (≈ 0.3 µM) | 0.25 µg/mL (≈ 0.3 µM) | < 0.12 µg/mL | < 0.12 µg/mL | 1 µg/mL (≈ 1.2 µM) | 4 µg/mL (≈ 4.81 µM) | 8 µg/mL (≈ 9.62 µM) | 0.25 µg/mL (≈ 0.3 µM) | < 0.12 µg/mL | < 0.12 µg/mL | 0.25 µg/mL (≈ 0.3 µM) | 1 µg/mL (≈ 1.2 µM) | 4 µg/mL (≈ 4.81 µM) | 8 µg/mL (≈ 9.62 µM) | < 0.12 µg/mL | 0.5 µg/mL (≈ 0.601 µM) | < 0.12 µg/mL | MIC [21]: 16 µg/mL (≈ 19.2 µM); MIC [22]: 0.5 µg/mL (≈ 0.601 µM); MIC [23]: < 0.12 µg/mL
NCC[C@H](O)C(=O)N[C@@H]1C[C@H](N)[C@@H](O[C@H]2O[C@H](CO)[C@@H](O)[C@H](O)[C@H]2N)[C@H](O[C@@H]2O[C@H](CO)[C@@H](O[C@H]3O[C@@H](CN)[C@@H](O)[C@H](O)[C@H]3N)[C@H]2O)[C@H]1O | 8 µg/mL (≈ 11.2 µM) | 1.3 µg/mL (≈ 1.81 µM) | 4 µg/mL (≈ 5.58 µM) | 4 µg/mL (≈ 5.58 µM) | > 128 µg/mL | 16 µg/mL (≈ 22.3 µM) | 1 µg/mL (≈ 1.4 µM) | 8 µg/mL (≈ 11.2 µM) | 8 µg/mL (≈ 11.2 µM) | 8 µg/mL (≈ 11.2 µM) | 4 µg/mL (≈ 5.58 µM) | 0.5 µg/mL (≈ 0.698 µM) | 1 µg/mL (≈ 1.4 µM) | > 128 µg/mL | > 128 µg/mL | 8 µg/mL (≈ 11.2 µM) | 16 µg/mL (≈ 22.3 µM) | 64 µg/mL (≈ 89.3 µM) | > 128 µg/mL | 0.5 µg/mL (≈ 0.698 µM) | MIC [21]: 32 µg/mL (≈ 44.6 µM); MIC [22]: > 128 µg/mL; MIC [23]: 0.25 µg/mL (≈ 0.349 µM)
CN[C@@H]1[C@@H](O)[C@@H](O[C@@H]2[C@@H](O)[C@H](O[C@H]3O[C@H]([C@@H](C)NC)CC[C@H]3N)[C@@H](N)C[C@H]2N)OC[C@]1(C)O [GENTAMICIN C1] | 1 µg/mL (≈ 2.09 µM) | – | 0.5 µg/mL (≈ 1.05 µM) | 0.25 µg/mL (≈ 0.523 µM) | 32 µg/mL (≈ 67 µM) | 16 µg/mL (≈ 33.5 µM) | < 0.12 µg/mL | 0.5 µg/mL (≈ 1.05 µM) | 64 µg/mL (≈ 134 µM) | > 128 µg/mL | 0.25 µg/mL (≈ 0.523 µM) | 0.12 µg/mL (≈ 0.251 µM) | 64 µg/mL (≈ 134 µM) | 32 µg/mL (≈ 67 µM) | 128 µg/mL (≈ 268 µM) | 64 µg/mL (≈ 134 µM) | 4 µg/mL (≈ 8.38 µM) | 32 µg/mL (≈ 67 µM) | 64 µg/mL (≈ 134 µM) | 32 µg/mL (≈ 67 µM) | MIC [21]: > 128 µg/mL; MIC [22]: 64 µg/mL (≈ 134 µM); MIC [23]: < 0.12 µg/mL
NCC[C@H](O)C(=O)N[C@@H]1C[C@H](N)[C@@H](O[C@H]2O[C@H](CN)[C@@H](O)[C@H](O)[C@H]2N)[C@H](O[C@@H]2O[C@H](CO)[C@@H](O[C@H]3O[C@@H](CN)[C@@H](O)[C@H](O)[C@H]3N)[C@H]2O)[C@H]1O | 2.5 µg/mL (≈ 3.49 µM) | 2.5 µg/mL (≈ 3.49 µM) | – | – | – | – | – | – | – | – | – | – | – | – | – | – | – | – | – | – | –
